Data reported in US11672788B2, “Histone deacetylase inhibitors for immunomodulation in tumor microenvironment” (GREAT NOVEL THERAPEUTICS BIOTECH & MEDICALS CORPORATION, priority 2020, dated 2023).
In brackets after ≈: the same amount, converted by molar mass.

How the values were obtained:
Saturation solubility = format: physicochemical; details: ddH2O, 25° C., mean ± SD, BDL: Below detection limit; for Saturation Solubility: 90 minutes
Procedure: Samples of 5 mg of compounds were added to 5 ml volumetric flasks containing ddH2O and shaken at 100 rpm in an incubator at 25° C. for 90 minutes. The resulting suspension was filtered through a 0.22 μm filter. The concentrations of compounds were determined spectrophotometrically at 256 nm. The saturation solubility of each sample was determined in triplicates and the mean value and standard deviation were reported.

SW48 cells [1] = test: Cell apoptosis (sub-G1) by PI flow cytometry; format: cell-based, human; details: 72 h; for Induction of apoptosis: SW48, indicated doses (Table 13)
Procedure: (§1) A PI/RNase staining assay (BD Bioscience™) was performed to reveal the presence of cell cycle arrest and apoptotic cells after treatment with GNTbm compounds, Chidamide and Entinostat. […] After treatment cells were harvested, fixed with 80% ethanol for 24 h, washed with 1×PBS and stained with PI/RNase for 15 min at room temperature. The cells were then analyzed using Flow Cytometer within 1 h.

SW48 = test: In vitro cytotoxicity MTT assay; format: cell-based, human; details: IC50 ± SD
Procedure: (§2) Six different cell lines were used, including human breast cancer cell line MDA-MB-231 (6×10^3), MDA-MB-453 (2.4×10^4), SK-BR-3 (6×10^3), human breast epithelial cell line M10 (6×10^3), human gastric carcinoma NCI-N87 (2.4×10^4), and human colorectal adenocarcinoma SW48 (2.4×10^4), and seeded in a 96 well plate. Cell lines were obtained from Bioresource Collection and Research Center, BCRC, Taiwan. […] After 72 h, MTT assay (Cayman™) was used to determine the cellular viability.

M10 = test: In vitro cytotoxicity MTT assay; format: cell-based, human; details: IC50 ± SD
Procedure: as §2

MDA-MB-231 = test: In vitro cytotoxicity MTT assay; format: cell-based, human; details: IC50 ± SD
Procedure: as §2

MDA-MB-453 = test: In vitro cytotoxicity MTT assay; format: cell-based, human; details: IC50 ± SD
Procedure: as §2

HDAC3 [2] = biological target: T1, HDAC3 (Homo sapiens (Human), UniProt O15379); test: HDAC3 enzymatic kinetic assay; format: biochemical; details: 2 μM; 20 min, 40 min and 60 min
T1 sequence (O15379 whole entry): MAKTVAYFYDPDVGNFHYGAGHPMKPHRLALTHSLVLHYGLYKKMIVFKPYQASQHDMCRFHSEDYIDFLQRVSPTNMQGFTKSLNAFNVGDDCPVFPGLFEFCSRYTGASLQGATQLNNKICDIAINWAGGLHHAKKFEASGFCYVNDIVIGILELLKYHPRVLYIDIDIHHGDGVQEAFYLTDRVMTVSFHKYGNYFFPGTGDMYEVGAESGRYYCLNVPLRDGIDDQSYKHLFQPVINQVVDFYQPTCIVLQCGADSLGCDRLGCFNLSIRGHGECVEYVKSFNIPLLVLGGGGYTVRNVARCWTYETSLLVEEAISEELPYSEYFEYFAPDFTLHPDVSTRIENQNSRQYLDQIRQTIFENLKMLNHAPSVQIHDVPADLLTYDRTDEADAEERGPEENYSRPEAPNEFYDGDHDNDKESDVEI
T1 sequence (Q9Y618 395-489 partner): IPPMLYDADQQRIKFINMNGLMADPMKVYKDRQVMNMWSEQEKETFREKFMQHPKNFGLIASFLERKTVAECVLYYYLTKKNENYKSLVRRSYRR
Procedure: (§3) HDAC3 enzymatic kinetic assay was performed according to standard Protocols (Fluorgenic HDAC3 assay kit, BPS Bioscience™). […] After incubation, assay developer was added to the samples and the absorbance was read at fluorogenic wavelength. The relative inhibition to HDAC3 activity in each sample was determined.

SW48 cells [3] = test: Cell cycle arrest by PI flow cytometry; format: cell-based, human; details: for Percentage of Cell Cycle Distribution G0/G1 / Percentage of Cell Cycle Distribution G2/M / Percentage of Cell Cycle Distribution S: 72 h; for Cell cycle arrest: SW48, doses of Table 12
Procedure: as §1

NCI-N87 = test: In vitro cytotoxicity MTT assay; format: cell-based; details: Homo sapiens, 72 h, IC50 ± SD
Procedure: as §2

SK-BR-3 = test: In vitro cytotoxicity MTT assay; format: cell-based; details: Homo sapiens, 72 h, IC50 ± SD
Procedure: as §2

HDAC2 = HDAC2 (Homo sapiens (Human), UniProt Q92769); test: HDACs 1, 2, and 3 enzymatic inhibition (fluorogenic kit, 1 h); format: biochemical; details: 37° C.
Chain of HDAC2 (Q92769 whole entry): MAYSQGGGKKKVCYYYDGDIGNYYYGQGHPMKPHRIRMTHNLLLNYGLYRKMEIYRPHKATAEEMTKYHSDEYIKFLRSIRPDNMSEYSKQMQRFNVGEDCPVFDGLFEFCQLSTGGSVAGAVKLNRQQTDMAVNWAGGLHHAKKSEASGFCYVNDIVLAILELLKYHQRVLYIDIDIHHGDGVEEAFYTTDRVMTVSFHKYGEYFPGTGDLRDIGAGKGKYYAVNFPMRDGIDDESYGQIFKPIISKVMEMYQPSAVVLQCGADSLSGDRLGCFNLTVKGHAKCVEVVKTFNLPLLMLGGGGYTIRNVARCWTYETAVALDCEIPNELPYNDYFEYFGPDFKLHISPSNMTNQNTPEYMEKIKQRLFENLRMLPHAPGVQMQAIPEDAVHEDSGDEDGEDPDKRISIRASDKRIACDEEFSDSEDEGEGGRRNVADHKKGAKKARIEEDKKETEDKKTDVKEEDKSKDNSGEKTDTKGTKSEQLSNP
Procedure: as §3, with “HDACs” for “HDAC3 enzymatic kinetic”, “HDACs 1, 2, and 3” for “HDAC3”, “1 h,” for “incubation,”, “HDACs 1, 2, and 3 activities” for “HDAC3 activity”

HDAC3 [4] = biological target: T1, HDAC3; test: as above; format: biochemical; details: 37° C.
Procedure: as §3, with “HDACs” for “HDAC3 enzymatic kinetic”, “HDACs 1, 2, and 3” for “HDAC3”, “1 h,” for “incubation,”, “HDACs 1, 2, and 3 activities” for “HDAC3 activity”

HDAC1 = HDAC1 (Homo sapiens (Human), UniProt Q13547); test: as above; format: biochemical; details: 37° C.
Chain of HDAC1 (Q13547 whole entry): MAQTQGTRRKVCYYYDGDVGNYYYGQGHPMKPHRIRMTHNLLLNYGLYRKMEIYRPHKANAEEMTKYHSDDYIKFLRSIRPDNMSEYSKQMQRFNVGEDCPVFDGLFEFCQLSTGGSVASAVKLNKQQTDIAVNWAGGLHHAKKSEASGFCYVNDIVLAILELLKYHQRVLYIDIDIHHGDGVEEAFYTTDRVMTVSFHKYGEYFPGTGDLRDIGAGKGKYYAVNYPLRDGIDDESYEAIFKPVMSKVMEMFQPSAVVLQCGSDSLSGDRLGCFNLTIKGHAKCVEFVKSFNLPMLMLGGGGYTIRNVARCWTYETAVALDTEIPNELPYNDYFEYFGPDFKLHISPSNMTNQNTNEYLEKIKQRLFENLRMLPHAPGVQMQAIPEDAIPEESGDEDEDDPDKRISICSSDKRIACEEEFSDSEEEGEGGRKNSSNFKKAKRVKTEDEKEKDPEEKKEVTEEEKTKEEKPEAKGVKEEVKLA
Procedure: as §3, with “HDACs” for “HDAC3 enzymatic kinetic”, “HDACs 1, 2, and 3” for “HDAC3”, “1 h,” for “incubation,”, “HDACs 1, 2, and 3 activities” for “HDAC3 activity”

[5] = test system: histone H3 acetylation (AcH3) in SW48 cells; test: Western blot of histone H3 acetylation; format: cell-based, human; details: SW48, 24 h, FIG. 12c
Procedure: Human breast cancer MDA-MB-231 cells and human colorectal adenocarcinoma SW48 cells were analyzed. MDA-MB-231 and SW48 were obtained from Bioresource Collection and Research Center (BCRC, Taiwan). MDA-MB-231 and SW48 were grown at 37° C. under humidified air supplemented without CO2 in Leibovitz's L-15 (cat. #11415114, Thermo Fisher Scientific) containing 10% heat inactivated fetal calf serum (Thermo Scientific), 1× concentration of MycoZap antibiotics (cat. #VZA-2011, Lonza). Cells were treated with GNTbm compounds series, Chidamide or Entinostat for different time periods or at varied doses. Cells were treated with indicated doses for 24 h or cells were treated with indicated doses for different time periods. Cell pellets were dissolved with RIPA buffer (cat. #20-188, Merck) with protease and phosphatase inhibitors (cat. #K272, BioVision) and clarified by centrifugation. Equal amounts of total protein were resolved by SDS-PAGE and transferred to polyvinylidene fluoride membranes (cat. #1620177, BIO-RAD). Blots were incubated with primary antibodies against β-actin (cat. #sc-47778, Santa Cruz Biotechnology), Histone 3ac (cat. #61637, Active Motif), and HRP secondary antibodies anti-rabbit (ab6721, Abcam) and anti-mouse (sc-2005, Santa Cruz). Blots were developed using the ECL Western Blotting Substrate (cat. #sc-2048, Santa Cruz Biotechnology) Image blots were analyzed with the iBright FL1000 (Thermo Fisher Scientific) imaging systems.

Row | SMILES | Saturation Solubility (Saturation solubility) | IC50 (M10; Homo sapiens, M10, 72 h) [µM] | IC50 (MDA-MB-231; Homo sapiens, MDA-MB-231, 72 h) [µM] | IC50 (MDA-MB-453; Homo sapiens, MDA-MB-453, 72 h) [µM] | Inhibition of HDAC 3 enzyme activities (kinetics) (HDAC3 [2]) | Cell cycle arrest (SW48 cells [3]) | IC50 (NCI-N87) [µM] | IC50 (SK-BR-3) [µM] | IC50 (SW48; Homo sapiens, SW48, 72 h) [µM] | IC50 (HDAC2) [µM] | IC50 (HDAC3 [4]) [µM] | IC50 (HDAC1) [µM] | Percentages of Cell Apoptosis (SW48 cells [1]; SW48, 0.125 μM) [%] | Percentages of Cell Apoptosis (SW48 cells [1]; SW48, 0.5 μM) [%] | Percentages of Cell Apoptosis (SW48 cells [1]; SW48, 1 μM) [%] | Percentages of Cell Apoptosis (SW48 cells [1]; SW48, 2 μM) [%] | Induction of apoptosis (SW48 cells [1]) | Percentage of Cell Cycle Distribution G0/G1 (SW48 cells [3]; SW48, 0.125 μM) [%] | Percentage of Cell Cycle Distribution G2/M (SW48 cells [3]; SW48, 0.125 μM) [%] | Percentage of Cell Cycle Distribution S (SW48 cells [3]; SW48, 0.125 μM) [%] | further results
1 | Nc1cc(F)ccc1NC(=O)c1ccc(CNC(=O)/C=C/c2cccnc2)cc1 [Chidamide, reference compound] | BDL | 2.72 ± 2.6 | 25.6 ± 3.05 | 1.77 ± 0.02 | stronger inhibition of HDAC 3 enzyme activities than Entinostat | induced cell cycle arrest in the G0/G1 phase | 3.09 ± 0.2 | 3.24 ± 0.98 | – | – | – | – | – | – | – | – | – | – | – | – | Percentages of Cell Apoptosis (SW48 cells [1]; SW48, 0.3125 μM): 9.0%; Percentages of Cell Apoptosis (SW48 cells [1]; SW48, 0.625 μM): 10.2%; Percentages of Cell Apoptosis (SW48 cells [1]; SW48, 1.25 μM): 15.1%; Percentages of Cell Apoptosis (SW48 cells [1]; SW48, 5 μM): 35.4%; IC50 (SW48; 72 h): 5.43 ± 1.06 µM; IC50 (M10; 72 h): 4.94 ± 0.87 µM; IC50 (MDA-MB-231; 72 h): 17.4 ± 1.98 µM; IC50 (MDA-MB-453; 72 h): 1.36 ± 0.12 µM; Percentage of Cell Cycle Distribution G0/G1 (SW48 cells [3]; SW48, 0.3125 μM): 65.7%; Percentage of Cell Cycle Distribution G2/M (SW48 cells [3]; SW48, 0.3125 μM): 16.7%; Percentage of Cell Cycle Distribution S (SW48 cells [3]; SW48, 0.3125 μM): 17.6%; Percentage of Cell Cycle Distribution G0/G1 (SW48 cells [3]; SW48, 0.625 μM): 68.1%; Percentage of Cell Cycle Distribution G2/M (SW48 cells [3]; SW48, 0.625 μM): 17.5%; Percentage of Cell Cycle Distribution S (SW48 cells [3]; SW48, 0.625 μM): 14.4%; Percentage of Cell Cycle Distribution G0/G1 (SW48 cells [3]; SW48, 1.25 μM): 70.6%; Percentage of Cell Cycle Distribution G2/M (SW48 cells [3]; SW48, 1.25 μM): 15.3%; Percentage of Cell Cycle Distribution S (SW48 cells [3]; SW48, 1.25 μM): 14.1%; Percentage of Cell Cycle Distribution G0/G1 (SW48 cells [3]; SW48, 5 μM): 79.9%; Percentage of Cell Cycle Distribution G2/M (SW48 cells [3]; SW48, 5 μM): 11.6%; Percentage of Cell Cycle Distribution S (SW48 cells [3]; SW48, 5 μM): 8.5%
2 | Cc1ccc(/C=C/CC(=O)Nc2ccc(C(=O)Nc3ccc(F)cc3N)cn2)cn1 [GNTbm-01, 6-((E)-4-(6-methylpyridin-3-yl)but-3-enamido)-N-(2-amino-4-fluorophenyl)pyridine-3-carboxamide] | – | 24.8 ± 1.15 | 49.8 ± 4.9 | 20.9 ± 4.44 | – | – | – | 28.5 ± 1.85 | > 50 | 2.68 ± 0.2 | 2.75 ± 0.13 | 6.77 ± 0.76 | – | – | – | – | – | – | – | – | –
3 | Cc1ccc(/C=C/CC(=O)Nc2ccc(C(=O)Nc3ccc(F)cc3N)cc2)cn1 [GNTbm-03, 4-((E)-4-(6-methylpyridin-3-yl)but-3-enamido)-N-(2-amino-4-fluorophenyl)benzamide] | BDL | 6.1 ± 0.134 | 26.7 ± 5.8 | 1.81 ± 0.008 | stronger inhibition of HDAC 3 enzyme activities than GNTbm-01 | – | – | 4.07 ± 0.68 | 5.26 ± 0.9 | 0.51 ± 0.05 | 0.67 ± 0.06 | 0.56 ± 0.04 | – | – | – | – | – | – | – | – | –
4 | Nc1cc(F)ccc1NC(=O)c1ccc(NC(=O)C/C=C/c2cccnc2)cn1 [GNTbm-04, 5-((E)-4-(pyridin-3-yl)but-3-enamido)-N-(2-amino-4-fluorophenyl)pyridine-2-carboxamide] | – | 1.81 ± 0.06 | 1.64 ± 0.004 | 1.59 ± 0.003 | – | significant induced cell cycle arrest in G0/G1 phase in SW48 cells | 0.34 ± 0.04 | – | 0.6 ± 0.09 | 0.54 ± 0.007 | 0.2 ± 0.1 | 0.38 ± 0.04 | 2.9 | 10.8 | 20.8 | 32 | potent in inducing apoptosis in SW48 cells | 56.9 | 25.2 | 17.9 | solubility at 90 min (Saturation solubility; water, thermodynamic from solid): 7.2 µg/mL (≈ 18.4 µM); Percentage of Cell Cycle Distribution G0/G1 (SW48 cells [3]; SW48, 0.5 μM): 63.2%; Percentage of Cell Cycle Distribution G2/M (SW48 cells [3]; SW48, 0.5 μM): 19.3%; Percentage of Cell Cycle Distribution S (SW48 cells [3]; SW48, 0.5 μM): 17.5%; Percentage of Cell Cycle Distribution G0/G1 (SW48 cells [3]; SW48, 1 μM): 67.2%; Percentage of Cell Cycle Distribution G2/M (SW48 cells [3]; SW48, 1 μM): 18.9%; Percentage of Cell Cycle Distribution S (SW48 cells [3]; SW48, 1 μM): 13.9%; Percentage of Cell Cycle Distribution G0/G1 (SW48 cells [3]; SW48, 2 μM): 70.5%; Percentage of Cell Cycle Distribution G2/M (SW48 cells [3]; SW48, 2 μM): 18.7%; Percentage of Cell Cycle Distribution S (SW48 cells [3]; SW48, 2 μM): 10.8%; Histone 3 acetylation expression versus Chidamide [5]: more potent in inducing the histone 3 acetylation expression in SW48 cells than Chidamide
5 | Nc1cc(F)ccc1NC(=O)c1ccc(NC(=O)C/C=C/c2cccnc2)cc1 [GNTbm-39, 4-((E)-4-(pyridin-3-yl)but-3-enamido)-N-(2-amino-4-fluorophenyl)benzamide] | – | 1.96 ± 0.02 | 2.93 ± 0.45 | 1.84 ± 0.02 | – | significantly induced cell cycle arrest in the G2/M phase in SW48 cells | 0.64 ± 0.03 | – | 1.73 ± 0.01 | 0.68 ± 0.03 | 0.89 ± 0.13 | 3.7 ± 0.04 | 9.5 | 17.8 | 25.4 | 37.8 | potent in inducing apoptosis in SW48 cells | 57.2 | 22.3 | 20.5 | Percentage of Cell Cycle Distribution G0/G1 (SW48 cells [3]; SW48, 0.5 μM): 58.8%; Percentage of Cell Cycle Distribution G2/M (SW48 cells [3]; SW48, 0.5 μM): 24.7%; Percentage of Cell Cycle Distribution S (SW48 cells [3]; SW48, 0.5 μM): 16.5%; Percentage of Cell Cycle Distribution G0/G1 (SW48 cells [3]; SW48, 1 μM): 46.5%; Percentage of Cell Cycle Distribution G2/M (SW48 cells [3]; SW48, 1 μM): 32.8%; Percentage of Cell Cycle Distribution S (SW48 cells [3]; SW48, 1 μM): 20.7%; Percentage of Cell Cycle Distribution G0/G1 (SW48 cells [3]; SW48, 2 μM): 42.3%; Percentage of Cell Cycle Distribution G2/M (SW48 cells [3]; SW48, 2 μM): 38.9%; Percentage of Cell Cycle Distribution S (SW48 cells [3]; SW48, 2 μM): 18.8%; Histone 3 acetylation expression versus Chidamide [5]: more potent in inducing the histone 3 acetylation expression in SW48 cells than Chidamide
